Laboratory results as given in patent US12428406B2 (PMV Pharmaceuticals, Inc., priority 2019, dated 2025).

Biological target: T1, p53 Y220C (Homo sapiens, UniProt P04637, Y220C)
T1 construct: The recombinant protein was a truncation mutant containing only amino acids 94-312 of p53; made in house; host or cells: E. coli
Experiment: In vitro DNA binding activity assay (HTRF / TR-FRET): stabilization of p53 Y220C and increase of its DNA binding activity
Format: biochemical
Details: recombinant His-tagged p53 Y220C DNA binding domain (aa 94-312), biotin-labeled consensus DNA, incubated at 27° C. or 29° C. for 60 min
Outline: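 Homogeneous time-resolved fluorescence with E. coli-derived p53 Y220C and biotinylated consensus DNA. Room-temperature incubations of 15 and 20 min precede reading. SC150 denotes the compound concentration required for 50% increased DNA binding.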

T1 sequence (P04637 94-312, change not shown): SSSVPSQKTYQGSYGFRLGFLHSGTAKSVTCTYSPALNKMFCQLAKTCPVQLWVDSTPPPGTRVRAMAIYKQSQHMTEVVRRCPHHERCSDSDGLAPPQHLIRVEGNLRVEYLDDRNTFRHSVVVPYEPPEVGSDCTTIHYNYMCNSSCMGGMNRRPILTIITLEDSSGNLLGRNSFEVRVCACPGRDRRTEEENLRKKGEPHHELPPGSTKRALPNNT

Row | Compound | SC150 (concentration of the compound required to increase the DNA binding activity by 50%)
1 | COC(=O)CC[C@H](NC(=O)c1ccc(NCC#Cc2cc3c(N[C@@H]4CCN(C)C[C@@H]4F)cccc3n2CC(F)(F)F)c(OC)c1)C(=O)OC [Compound 932A, 1,5-dimethyl (2S)-2-[(4-{[3-(4-{[(3S,4R)-3-fluoro-1-methylpiperidin-4-yl]amino}-1-(2,2,2-trifluoroethyl)-1H-indol-2-yl)prop-2-yn-1-yl]amino}-3-methoxyphenyl)formamido]pentanedioate] | + (+ = 0 μM ≤ SC150 < 0.05 μM)
2 | COc1cc(S(N)(=O)=O)ccc1NCC#Cc1cc2c(N[C@H]3CC[C@H](N4CC5(CCCOC5)C4)CC3)cccc2n1CC(F)(F)F [Compound 320A, 3-methoxy-4-{[3-(4-{[(1R,4R)-4-{6-oxa-2-azaspiro[3.5]nonan-2-yl}cyclohexyl]amino}-1-(2,2,2-trifluoro-ethyl)-1H-indol-2-yl)prop-2-yn-1-yl]amino} benzene-1-sulfonamide] | + (+ = 0 μM ≤ SC150 < 0.05 μM)
3 | CN(C)[C@H]1CC[C@@H](Nc2cccc3c2cc(C#CCNc2ccc(S(C)(=O)=O)cc2C(F)(F)F)n3CC(F)(F)F)CC1 [Compound 138A, (1S,4S)-N^4-[2-(3-{[4-methanesulfonyl-2-(trifluoromethyl)phenyl]amino}prop-1-yn-1-yl)-1-(2,2,2-trifluoroethyl)-1H-indol-4-yl]-N^1,N^1-dimethylcyclohexane-1,4-diamine] | +++ (+++ = 0.1 μM ≤ SC150 < 0.2 μM)
4 | CNC(=O)c1ccc(NCC#Cc2cc3c(N[C@H]4CC[C@@H](N(C)C)CC4)cccc3n2CC(F)(F)F)c(OCF)c1 [Compound 107A, 3-(fluoromethoxy)-N-methyl-4-{[3-(4-{[(1S,4S)-4-(dimethyl-amino)cyclohexyl]amino}-1-(2,2,2-trifluoro-ethyl)-1H-indol-2-yl)prop-2-yn-1-yl]amino}benzamide] | + (+ = 0 μM ≤ SC150 < 0.05 μM)
5 | COc1cc(S(C)(=O)=O)ccc1NCC#Cc1cc2c(NC3CCN(CCOC(C)=O)CC3)cccc2n1CC(F)(F)F [Compound 565A, 2-{4-[(2-{3-[(4-methanesulfonyl-2-methoxyphenyl)amino]prop-1-yn-1-yl}-1-(2,2,2-trifluoroethyl)-1H-indol-4-yl)amino]piperidin-1-yl}EtOAc] | + (+ = 0 μM ≤ SC150 < 0.05 μM)
6 | COc1cc(S(C)(=O)=O)ccc1NCC#Cc1cc2c(NC3CC4(CNC4)C3)cccc2n1CC(F)(F)F [Compound 22A, N-{2-azaspiro[3.3]heptan-6-yl}-2-{3-[(4-methane-sulfonyl-2-methoxy-phenyl)amino]prop-1-yn-1-yl}-1-(2,2,2-trifluoroethyl)-1H-indol-4-amine] | + (+ = 0 μM ≤ SC150 < 0.05 μM)
7 | COc1cc(C(=O)NC(C)COC(=O)C(C)C)ccc1NCC#Cc1cc2c(N[C@@H]3CCN(C)C[C@@H]3F)cccc2n1CC(F)(F)F (stereo partly drawn) [Compound 972A, 2-[(4-{[3-(4-{[(3S,4R)-3-fluoro-1-methylpiperidin-4-yl]amino}-1-(2,2,2-trifluoroethyl)-1H-indol-2-yl)prop-2-yn-1-yl]amino}-3-methoxyphenyl)formamido]propyl 2-methylpropanoate] | + (+ = 0 μM ≤ SC150 < 0.05 μM)
8 | COc1cc(S(N)(=O)=O)ccc1NCC#Cc1cc2c(N[C@H]3CC[C@H](N4CCC(OC)C4)CC3)cccc2n1CC(F)(F)F (stereo partly drawn) [Compound 427A, 3-methoxy-4-{[3-(4-{[(1R,4R)-4-(3-methoxypyrrolidin-1-yl)cyclohexyl]amino}-1-(2,2,2-trifluoroethyl)-1H-indol-2-yl)prop-2-yn-1-yl]amino}benzene-1-sulfonamide] | + (+ = 0 μM ≤ SC150 < 0.05 μM)
9 | COc1cc(S(C)(=O)=O)ccc1NCC#Cc1cc2c(N[C@H]3CCN(C[C@@H](C)O)C[C@H]3F)cccc2n1CC(F)(F)F [Compound 894A, 1-[(3R,4S)-3-fluoro-4-[(2-{3-[(4-methanesulfonyl-2-methoxyphenyl)amino]prop-1-yn-1-yl}-1-(2,2,2-trifluoroethyl)-1H-indol-4-yl)amino]piperidin-1-yl]propan-2-ol] | + (+ = 0 μM ≤ SC150 < 0.05 μM)
10 | COc1cc(S(=O)(=O)Nc2cc(C)on2)ccc1NCC#Cc1cc2c(NC3CCN(C)CC3)cccc2n1CC(F)(F)F [Compound 471A, 3-methoxy-N-(5-methyl-1,2-oxazol-3-yl)-4-[(3-{4-[(1-methylpiperidin-4-yl)amino]-1-(2,2,2-trifluoroethyl)-1H-indol-2-yl}prop-2-yn-1-yl)amino]benzene-1-sulfonamide] | + (+ = 0 μM ≤ SC150 < 0.05 μM)
11 | CNC(=O)c1cc(OC)c(NCC#Cc2cc3c(N[C@H]4CC[C@H](N5CC6(COC6)C5)CC4)cccc3n2CC(F)(F)F)cc1F [Compound 275A, 2-fluoro-5-methoxy-N-methyl-4-{[3-(4-{[(1R,4R)-4-{2-oxa-6-azaspiro[3.3]heptan-6-yl}cyclohexyl]amino}-1-(2,2,2-trifluoroethyl)-1H-indol-2-yl)prop-2-yn-1-yl]amino}benzamide] | + (+ = 0 μM ≤ SC150 < 0.05 μM)
12 | CS(=O)(=O)c1ccc(NCC#Cc2cc3c(N[C@H]4CC[C@H](N5CC6(COC6)C5)CC4)cccc3n2CC(F)(F)F)c(C(F)(F)F)c1 [Compound 287A, 2-(3-{[4-methane-sulfonyl-2-(trifluoro-methyl)phenyl]amino}prop-1-yn-1-yl)-N-[(1R,4R)-4-{2-oxa-6-azaspiro[3,3]heptan-6-yl}cyclohexyl]-1-(2,2,2-trifluoroethyl)-1H-indol-4-amine] | + (+ = 0 μM ≤ SC150 < 0.05 μM)
13 | COc1cc(S(C)(=O)=O)ccc1NCC#Cc1cc2c(NC3CCN(C4CC4)CC3)cccc2n1CC(F)(F)F [Compound 720A, N-(1-cyclopropylpiperidin-4-yl)-2-{3-[(4-methanesulfonyl-2-methoxyphenyl)amino]prop-1-yn-1-yl}-1-(2,2,2-trifluoroethyl)-1H-indol-4-amine] | + (+ = 0 μM ≤ SC150 < 0.05 μM)
14 | COc1cc(S(=O)(=O)N2CCN(C)CC2)ccc1NCC#Cc1cc2c(NC3CCN(CC(O)CO)CC3)cccc2n1CC(F)(F)F (stereo not drawn) [Compound 559A, 3-[4-({2-[3-({2-methoxy-4-[(4-methylpiperazin-1-yl)sulfonyl]phenyl}amino)prop-1-yn-1-yl]-1-(2,2,2-trifluoroethyl)-1H-indol-4-yl}amino)piperidin-1-yl]propane-1,2-diol] | + (+ = 0 μM ≤ SC150 < 0.05 μM)
15 | CNC(=O)c1ccc(NCC#Cc2cc3c(N[C@@H]4CCN(C)C[C@@H]4F)cccc3n2CC(F)(F)F)c(O)c1 [Compound 1058A, 4-{[3-(4-{[(3S,4R)-3-fluoro-1-methylpiperidin-4-yl]amino}-1-(2,2,2-trifluoroethyl)-1H-indol-2-yl)prop-2-yn-1-yl]amino}-3-hydroxy-N-methylbenzamide] | + (+ = 0 μM ≤ SC150 < 0.05 μM)
